Measurements published in patent publication US9982005B2, “Macrolides and methods of their preparation and use” (President and Fellows of Harvard College, priority 2013, dated 2018).
Converted amounts (≈) assume the structure as drawn. Like-named read-outs stand apart in the source and are kept apart here.

Assays:
Assay type in all cases: cell-based
[1] = system: Spn1533 S. pneumoniae ermB positive mefA positive; assay: broth dilution MIC, S. pneumoniae Spn1533; details: Streptococcus pneumoniae
Description: (§1) We have collected MIC data for a total of 50 novel macrolides that this platform has produced against over 21 unique strains of B. subtilis, E. coli, S. aureus, S. pneumoniae, and H. influenzae, including several multidrug-resistant strains, with a special focus on macrolide resistant mechanisms (vide supra). Azithromycin was included as a control macrolide. CLSI standard procedures for broth dilution MIC determination were used. […] These genotypes can be constitutive or inducible. The finding that C4-epi (unnatural) isomers of the “azaketolide” macrolide class have enhanced activities relative to C4 natural isomers is very exciting.

[2] = system: SA183 S. aureus ermA positive msrA unknown; assay: broth dilution MIC, S. aureus SA183; details: Staphylococcus aureus
Description: as §1

[3] = system: BS1723 B. subtilis BS168 WT wild type; assay: broth dilution MIC, B. subtilis BS1723; details: Bacillus subtilis, BS1723 B. subtilis BS168 WT wild type; read-out: MIC
Method in brief: (§2)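 MICs were determined by broth dilution following CLSI standard procedures. Azithromycin served as the control macrolide.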

[4] = system: SA557 S. aureus ermA unknown msrA positive; assay: broth dilution MIC, S. aureus SA557; details: Staphylococcus aureus
Description: as §1

[5] = system: SA418 S. aureus ermA negative msrA positive; assay: broth dilution MIC, S. aureus SA418; details: Staphylococcus aureus
Description: as §1

[6] = system: Spn1509 S. pneumoniae ermB positive mefA negative; assay: broth dilution MIC, S. pneumoniae Spn1509; details: Streptococcus pneumoniae
Description: as §1

[7] = system: Spn1427 S. pneumoniae ermB positive mefA negative; assay: broth dilution MIC, S. pneumoniae Spn1427; details: Streptococcus pneumoniae
Description: as §1

[8] = system: Spn1537 S. pneumoniae ermB positive mefA positive; assay: broth dilution MIC, S. pneumoniae Spn1537; details: Streptococcus pneumoniae
Description: as §1

[9] = system: Spn160 S. pneumoniae ermB unknown mefA positive; assay: broth dilution MIC, S. pneumoniae Spn160; details: Streptococcus pneumoniae; Spn160 S. pneumoniae ermB unknown mefA positive; read-out: MIC
Description: as §1

EC878 E. coli tolC = assay: broth dilution MIC, E. coli EC878; details: Escherichia coli
Method in brief: as §2

[10] = system: SA1707 S. aureus ermA negative msrA positive; assay: broth dilution MIC, S. aureus SA1707; details: Staphylococcus aureus
Description: as §1

EC107 E. coli ATCC25922 = assay: broth dilution MIC, E. coli EC107; details: Escherichia coli, read-out: MIC
Method in brief: as §2

EC882 E. coli imp = assay: broth dilution MIC, E. coli EC882; details: Escherichia coli
Method in brief: as §2

[11] = system: SA101 S. aureus ATCC29213; assay: broth dilution MIC, S. aureus SA101; details: Staphylococcus aureus
Method in brief: as §2

[12] = system: SA506 S. aureus ermA positive msrA unknown; assay: broth dilution MIC, S. aureus SA506; details: Staphylococcus aureus
Description: as §1

BS1725 B. subtilis ermC = assay: broth dilution MIC, B. subtilis BS1725; details: Bacillus subtilis
Method in brief: as §2

[13] = system: Spn 106 S. pneumonia ATCC49619; assay: broth dilution MIC, S. pneumoniae Spn 106; details: Streptococcus pneumoniae; Spn 106 S. pneumonia ATCC49619; read-out: MIC
Description: as §1

[14] = system: SA1708 S. aureus ermA positive msrA negative; assay: broth dilution MIC, S. aureus SA1708; details: Staphylococcus aureus
Description: as §1

[15] = system: S. aureus (Newman, clinical isolate); assay: MIC, S. aureus Newman; details: Staphylococcus aureus, S. aureus (Neuman, clinical isolate), round 2
Description: as §1

S. aureus strains = assay: MIC against S. aureus strains (Table M7); details: Staphylococcus aureus
Method in brief: as §2

E. coli strains = assay: MIC against E. coli strains (Table M7); details: Escherichia coli, ATCC25922, E. coli ATCC 25922
Method in brief: as §2

A. baumannii strains = assay: MIC against A. baumannii strains (Table M8); details: Acinetobacter baumannii, BAA747, A. baumannii BAA747-1
S. pneumoniae strains = assay: MIC against S. pneumoniae strains (Tables M7, M8); details: Streptococcus pneumoniae
Description: CLSI standard procedures for broth dilution MIC determination were used. […] These genotypes can be constitutive or inducible.

K. pneumoniae strains = assay: MIC against K. pneumoniae strains (Table M8); details: Klebsiella pneumoniae, K. pneumoniae 10031
E. coli (MC4100) = assay: MIC, E. coli MC4100; details: Escherichia coli, round 2, read-out: MIC
Description: as §1

H. influenzae strains = assay: MIC against H. influenzae strains (Table M8); details: Haemophilus influenzae
Method in brief: as §2

E. faecalis strains = assay: MIC against E. faecalis strains (Table M8); details: Enterococcus faecalis, E. faecalis 29212
[16] = system: HI175 H. influenzae ATCC49247; assay: broth dilution MIC, H. influenzae HI175; details: Haemophilus influenzae
Description: as §1

[17] = ATCC29213, S. aureus ATCC 29213, read-out: MIC S. aureus (ATCC 29213)
[18] = S. aureus 506, read-out: MIC S. aureus (506)
[19] = S. aureus 1708, read-out: MIC S. aureus (1708)
[20] = USA300, S. aureus USA300, read-out: MIC S. aureus (USA300)
[21] = S. pneumoniae 160, read-out: MIC S. pneumonae (160)
[22] = S. pneumoniae 1509, read-out: MIC S. pneumoniae (1509)
[23] = S. pneumoniae 1533, read-out: MIC S. pneumoniae (1533)
[24] = S. pneumoniae 1537, read-out: MIC S. pneumoniae (1537)
[25] = S. pneumoniae 49619, read-out: MIC S. pneumoniae (49619)
[26] = H. influenzae 49247, read-out: MIC H. influenzae (49247)
[27] = H. influenzae 49766, read-out: MIC H. influenzae (49766)

`CCC[C@@H]1C[C@@H](C(=O)N[C@@H]([C@H]2O[C@H](SC)[C@H](O)[C@@H](O)[C@H]2O)[C@H](C)Cl)N(C)C1` [Clindamycin, clindamycin, reference compound] was tested, and the MIC [1] was > 32 µg/mL, the MIC [2] was > 32 µg/mL and the MIC [3] was 1 µg/mL (≈ 2.35 µM). For the same compound, the MIC [4] was 0.125 µg/mL (≈ 0.294 µM), the MIC [5] was 0.0625 to 0.125 µg/mL (≈ 0.147 to 0.294 µM) and the MIC [6] was 16 to 32 µg/mL (≈ 37.6 to 75.3 µM). For the same compound, the MIC [7] was > 32 µg/mL, the MIC [8] was > 32 µg/mL and the MIC [9] was 0.0156 to 0.0312 µg/mL (≈ 0.0367 to 0.0734 µM). The MIC (EC878 E. coli tolC) was 2 µg/mL (≈ 4.71 µM), the MIC [10] was 0.0625 to 0.125 µg/mL (≈ 0.147 to 0.294 µM) and the MIC (EC107 E. coli ATCC25922) was > 32 µg/mL. The MIC (EC882 E. coli imp) was 2 µg/mL (≈ 4.71 µM), the MIC ([11]; ATCC29213) was 0.125 µg/mL (≈ 0.294 µM) and the MIC [12] was > 32 µg/mL. For the same compound, the MIC (BS1725 B. subtilis ermC; BS1725 B. subtilis ermC (+ery)) was 4 µg/mL (≈ 9.41 µM), the MIC (BS1725 B. subtilis ermC; BS1725 B. subtilis ermC (−ery)) was 2 µg/mL (≈ 4.71 µM) and the MIC [13] was 0.0312 µg/mL (≈ 0.0734 µM). It also gave an MIC [14] of 0.25 µg/mL (≈ 0.588 µM).
For `C=CC[C@H]1C(=O)O[C@H](CC)[C@@]2(C)OC(=O)N(CCCCn3cc(-c4cccc(N)c4)nn3)[C@@H]2[C@@H](C)NC[C@H](C)C[C@@](C)(OC)[C@H](O[C@@H]2OC(C)CC(N(C)C)C2O)[C@@H](C)C1=O` (stereo partly drawn) [FSM-56156], the MIC [15] was 2 µg/mL (≈ 2.34 µM), the MIC (S. aureus strains; [17]) was 4 µg/mL (≈ 4.68 µM) and the MIC (S. aureus strains; [18]) was > 32 µg/mL. The MIC (S. aureus strains; [19]) was 4 µg/mL (≈ 4.68 µM), the MIC (S. aureus strains; [20]) was 8 µg/mL (≈ 9.37 µM) and the MIC (E. coli strains) was 16 µg/mL (≈ 18.7 µM). For the same compound, the MIC (A. baumannii strains) was 32 µg/mL (≈ 37.5 µM), the MIC (S. pneumoniae strains; [21]) was 0.25 µg/mL (≈ 0.293 µM) and the MIC (S. pneumoniae strains; [22]) was 8 µg/mL (≈ 9.37 µM). The MIC (S. pneumoniae strains; [23]) was > 32 µg/mL, the MIC (S. pneumoniae strains; [24]) was > 32 µg/mL and the MIC (S. pneumoniae strains; [25]) was 1 µg/mL (≈ 1.17 µM). For the same compound, the MIC (K. pneumoniae strains) was 4 µg/mL (≈ 4.68 µM), the MIC (E. coli (MC4100)) was 4 µg/mL (≈ 4.68 µM) and the MIC (H. influenzae strains; [26]) was 2 µg/mL (≈ 2.34 µM). It also gave an MIC (H. influenzae strains; [27]) of 8 µg/mL (≈ 9.37 µM) and an MIC (E. faecalis strains) of 1 µg/mL (≈ 1.17 µM).
With `CC[C@H]1OC(=O)C(C)(F)C(=O)[C@@H](C)[C@@H](O[C@@H]2OC(C)CC(N(C)C)C2O)[C@](C)(OC)C[C@@H](C)CN[C@H](C)[C@H]2N(CCCCn3cc(-c4nccs4)nn3)C(=O)O[C@]12C` (stereo partly drawn) [FSM-20721] the MIC [1] was > 32 µg/mL, the MIC [16] was 8 to 32 µg/mL (≈ 9.55 to 38.2 µM) and the MIC [2] was > 32 µg/mL. The MIC [3] was 8 µg/mL (≈ 9.55 µM), the MIC ([4]; SA557 S. aureus ermA unknown msrA positive, read-out: MIC) was 16 µg/mL (≈ 19.1 µM) and the MIC [5] was 16 µg/mL (≈ 19.1 µM). For the same compound, the MIC ([6]; Spn1509 S. pneumoniae ermB positive mefA negative, read-out: MIC) was 8 to 16 µg/mL (≈ 9.55 to 19.1 µM), the MIC [7] was > 32 µg/mL and the MIC [8] was > 32 µg/mL. It also gave an MIC [9] of 0.5 to 1 µg/mL (≈ 0.597 to 1.19 µM), an MIC (EC878 E. coli tolC) of 1 µg/mL (≈ 1.19 µM) and an MIC [10] of 16 µg/mL (≈ 19.1 µM). The MIC (EC107 E. coli ATCC25922) was > 32 µg/mL, the MIC (EC882 E. coli imp) was 0.25 µg/mL (≈ 0.298 µM) and the MIC ([11]; ATCC29213, SA101 S. aureus ATCC29213, read-out: MIC) was 8 µg/mL (≈ 9.55 µM). The MIC [12] was > 32 µg/mL, the MIC (BS1725 B. subtilis ermC; BS1725 B. subtilis ermC (+ery)) was > 32 µg/mL and the MIC [13] was 0.125 to 0.25 µg/mL (≈ 0.149 to 0.298 µM). It also gave an MIC [14] of 16 µg/mL (≈ 19.1 µM).
`CC[C@H]1OC(=O)[C@H](C)C(=O)[C@H](C)[C@@H](O[C@@H]2OC(C)CC(N(C)C)C2O)[C@](C)(OC)CCN[C@H](C)[C@H]2N(CCCCn3cc(-c4cccc(N)c4)nn3)C(=O)O[C@]12C` (stereo partly drawn) [FSM-30622] was tested, and the MIC [15] was > 32 µg/mL, the MIC (S. aureus strains; [17]) was > 32 µg/mL and the MIC (S. aureus strains; [18]) was > 32 µg/mL. For the same compound, the MIC (S. aureus strains; [19]) was > 32 µg/mL, the MIC (S. aureus strains; [20]) was > 32 µg/mL and the MIC (E. coli strains) was > 32 µg/mL. The MIC (A. baumannii strains) was > 32 µg/mL, the MIC (S. pneumoniae strains; [21]) was > 32 µg/mL and the MIC (S. pneumoniae strains; [22]) was > 32 µg/mL. The MIC (S. pneumoniae strains; [23]) was > 32 µg/mL, the MIC (S. pneumoniae strains; [24]) was > 32 µg/mL and the MIC (S. pneumoniae strains; [25]) was > 32 µg/mL. The MIC (K. pneumoniae strains) was > 32 µg/mL, the MIC (E. coli (MC4100)) was > 32 µg/mL and the MIC (H. influenzae strains; [26]) was > 32 µg/mL. For the same compound, the MIC (H. influenzae strains; [27]) was > 32 µg/mL and the MIC (E. faecalis strains) was > 32 µg/mL.
